The text below walks through data of ChEMBL document CHEMBL3046487, “Preparation and root growth-modulatory activity of N-substituted 2-acetylamino-2-ethoxycarbonyl-3-(2-furyl)propanamides” (2001).

Type in all cases: functional
For assay [1], the system named is Brassica rapa subsp. oleifera. Description: Root growth inhibition of Brassica rapa subsp. oleifera seedling at 1 x 10^-3 M after 7 days by agar dilution method relative to control. To be noted: 168 h, read-out: GI. For orientation: Agar dilution tests growth on a series of plates holding different concentrations.
Assay [2] concerns Allium tuberosum. The assay is described as follows: Root growth inhibition of Allium tuberosum seedling at 1 x 10^-3 M after 10 days by agar dilution method relative to control. The conditions noted are these: 240 h, read-out: GI.
Assay [3] has as its system Brassica rapa subsp. oleifera. The assay is described as follows: Root growth inhibition of Brassica rapa subsp. oleifera seedling at 5 x 10^-5 M after 7 days by agar dilution method relative to control. The conditions noted are these: 168 h, read-out: GI.
In assay [4] the test system is Brassica rapa subsp. oleifera. The assay is described as follows: Root growth inhibition of Brassica rapa subsp. oleifera seedling at 1 x 10^-4 M after 7 days by agar dilution method relative to control. The conditions noted are these: 168 h, read-out: GI.
Assay [5] has as its system Allium tuberosum. Description: Root growth inhibition of Allium tuberosum seedling at 1 x 10^-4 M after 10 days by agar dilution method relative to control. To be noted: 240 h, read-out: GI.
Assay [6] has as its system Allium tuberosum. The assay is described as follows: Root growth inhibition of Allium tuberosum seedling at 5 x 10^-4 M after 10 days by agar dilution method relative to control. To be noted: 240 h, read-out: GI.
The test system of assay [7] is Brassica rapa subsp. oleifera. Description: Root growth inhibition of Brassica rapa subsp. oleifera seedling at 5 x 10^-4 M after 7 days by agar dilution method relative to control. To be noted: 168 h, read-out: GI.
Assay [8] concerns Allium tuberosum. The assay is described as follows: Root growth inhibition of Allium tuberosum seedling at 5 x 10^-5 M after 10 days by agar dilution method relative to control. The conditions noted are these: 240 h, read-out: GI.
The subject of assay [9] is Allium tuberosum. The assay is described as follows: Root growth promotion of Allium tuberosum seedling at 1 x 10^-3 M after 10 days by agar dilution method relative to control. To be noted: 240 h, read-out: GI.

Consider `CCOC(=O)C(Cc1ccco1)(NC(C)=O)C(=O)Nc1ncc([N+](=O)[O-])s1` (racemic), for which the figures for the inhibition of growth at 1000 µM (in assay [1]; in the assay with Allium tuberosum [2]) were 94% and 54%, respectively.
`CCOC(=O)C(Cc1ccco1)(NC(C)=O)C(=O)Nc1nc2c(Cl)cccc2s1` (racemic): the inhibition of growth at 50 µM in assay [3] was 41%; with Allium tuberosum [8] it was 10%. The values for the inhibition of growth at 1000 µM (in assay [1]; in the assay on Allium tuberosum [2]) were 100% and 70%, respectively. The inhibition of growth at 100 µM in assay [4] is 50%; in the assay with Allium tuberosum [5], 10%. In addition, the results for the inhibition of growth at 500 µM (in the assay on Allium tuberosum [6]; in assay [7]) were 50% and 91%, respectively.
Consider `O=C(O)COc1ccc(Cl)cc1Cl` [2,4-DICHLOROPHENOXYACETIC ACID], for which the inhibition of growth at 50 µM in assay [3] came out at 98%; in the assay with Allium tuberosum [8], 97%. The inhibition of growth at 1000 µM (in assay [1]; in the assay with Allium tuberosum [2]) was 100% each time. For the same molecule, the inhibition of growth at 100 µM was 98% in [4] and 99% in the assay on Allium tuberosum [5]. Moreover, the values for the inhibition of growth at 500 µM (in the assay with Allium tuberosum [6]; in assay [7]) were 100% and 99%, respectively.
In the case of `CCOC(=O)C(Cc1ccco1)(NC(C)=O)C(=O)Nc1ccc(Cl)cc1` (racemic), the inhibition of growth at 1000 µM in assay [1] stood at 49%; with Allium tuberosum [9], 14%.
As for `CCOC(=O)C(Cc1ccco1)(NC(C)=O)C(=O)NCc1ccco1` (racemic), the inhibition of growth at 1000 µM is 13% in assay [1] and 36% with Allium tuberosum [9].
As to `CCOC(=O)C(Cc1ccco1)(NC(C)=O)C(=O)Nc1ncc(C)s1` (racemic), the inhibition of growth at 1000 µM in [1] stood at 61%; in the assay with Allium tuberosum [2], 42%.
In the case of `CCOC(=O)C(Cc1ccco1)(NC(C)=O)C(=O)Nc1nccs1` (racemic), the inhibition of growth at 1000 µM was determined as 53% in assay [1] and 29% in the assay on Allium tuberosum [2].
On to `CCOC(=O)C(Cc1ccco1)(NC(C)=O)C(=O)OCC`, for which the inhibition of growth at 1000 µM in [1] was found to be 26%; with Allium tuberosum [2], 4%.
On to `CCOC(=O)C(Cc1ccco1)(NC(C)=O)C(=O)O` (configuration not stated), for which the inhibition of growth at 1000 µM worked out at 66% in assay [1] and 47% in the assay on Allium tuberosum [2].
On the same counts, the results for `CCCCNC(=O)C(Cc1ccco1)(NC(C)=O)C(=O)OCC` (racemic) are 9% and 4%.
With `CCOC(=O)C(Cc1ccco1)(NC(C)=O)C(=O)Nc1ncc(Br)s1` (racemic), the results for the inhibition of growth at 50 µM (in assay [3]; in the assay on Allium tuberosum [8]) were 21% and 30%, respectively. The results for the inhibition of growth at 1000 µM (in assay [1]; in the assay on Allium tuberosum [2]) were 100% and 56%, respectively. Also, the values for the inhibition of growth at 100 µM (in [4]; in the assay on Allium tuberosum [5]) were 80% and 50%, respectively. Also, the inhibition of growth at 500 µM in the assay with Allium tuberosum [6] was found to be 53%; in assay [7], 98%.
On to `CCOC(=O)C(Cc1ccco1)(NC(C)=O)C(=O)Nc1ccccc1` (racemic), for which the results for the inhibition of growth at 1000 µM (in assay [1]; in the assay with Allium tuberosum [2]) were 3% and 7%, respectively.
